Assays:
[1] = test system: human foreskin fibroblasts HFF-BJ (ATCC CRL-2522 cells); assay: MTT cytotoxicity / cell viability assay; format: cell-based; settings: 0.1 to 50 μM, 72 h
From the text: Cell viability as visualized by fold change of formazan-positive cells normalized to the untreated control and DMSO. Viability reduced below 40% represents the cytotoxic zone, below the dotted line in each plot. The number of biological replicates is indicated.
Human foreskin fibroblasts (HFF), a type of primary fibroblast derived from neonatal foreskin tissue, were chosen for this bioassay due to their distinct advantages in studies involving HCMV. For instance, the HHF cells provide a relevant and effective platform due to their unique susceptibility to HCMV infection, ability to mimic human immune responses, and relevance to clinical scenarios. […] HFF cells were incubated with each compound at concentrations ranging from 0.1 to 50 μM and any possible cytotoxic effect was monitored for 72 h. Tested compounds were dissolved in dimethyl sulfoxide (DMSO). […] The cytotoxic effect (CTE) is represented here as the concentration that causes a reduction of more than 40% in the number of viable cells.
Cells were seeded in a 96-well plate at a density of 1 × 10^4 cells per well for the measurement of cytotoxicity of the compounds (without UVA irradiation). […] Cells after treatment were incubated for […]. Untreated cells were considered negative control, and DMSO-treated cells (at appropriate concentration) were considered vehicle control. The classical MTT assay (3-(4,5-dimethyl thiazolyl-2)-2,5-diphenyltetrazolium bromide) ([68]) was used to measure cellular metabolic activity as an indicator of cell viability, proliferation, and cytotoxicity. Briefly, 0.5 mg/ml MTT solution was dispensed in each well of the 96-well plate and incubated for 4 h. Afterward, the MTT solution was removed and 200 μl of 100% DMSO was added to each well and the plate was placed on a microplate shaker for 5 min to dissolve the formazan granules. The absorbance was measured at 550 nm using a spectrophotometer. DMSO and MTT were purchased from Thermo Fisher Scientific. The darker the solution, the greater the number of viable, metabolically active cells. All experimental compounds were measured using at least 2 to 3 replicates for each and the averaged values from three independent experiments (n = 3) are presented. Cell viability was visualized by fold change of formazan-positive cells normalized to the untreated control and DMSO. Viability reduced below 40% represents the cytotoxic zone. All evaluations were performed using GraphPad Prism 9.5.0 (GraphPad Software, LLC), if other software was not explicitly mentioned.

UL141 D232A mutant = target: T1, UL141 D232A mutant (Human cytomegalovirus, UniProt Q6RJQ3, D232A); assay: SPR binding to UL141 alanine mutant D232A; settings: D232A (site C), 0 to 25 μM
T1 construct: extracellular domain of HCMV UL141 (residues 30–300, Gene ID: 3077418); made in house; host or cells: Sf9 (baculovirus)
From the text: Collectively, the findings from molecular modeling, ELISA, and SPR prompted a more detailed investigation into the binding mechanisms, leading us to explore the possibility of distinct binding sites for UL141 in its interaction with glycomimetic compound 18. To further clarify this, we conducted mutational analysis on the surface residues of UL141 to identify specific binding sites involved in this interaction. The following residues were selected for alanine-scanning mutagenesis, followed by SPR analysis to assess their contribution to the binding affinity of UL141 for 18: Asp91, Glu92, Arg82, Arg80, and Asp37 (site A); Tyr148 and Arg146 (site B); and Arg85, Leu163, Glu164, Pro231, Trp235, and Asp232 (site C) (Fig. 9A). The UL141 mutants were generated through single alanine substitutions and recombinantly produced in the BV-Sf9 system following the same protocol as the WT UL141. […] The binding affinities of the remaining mutants were assessed using SPR, as illustrated in Figure 9. […] Binding interactions were monitored over a 300-s period. […]
Figure 9 Mutational analysis of UL141 binding sites for antagonist 18. […] An alternative representation of the same SPR data, showing all measured concentration points, is provided in panel (C), with the structure of compound 18 included for reference. […]

T1 sequence (Q6RJQ3 30-300 D232A): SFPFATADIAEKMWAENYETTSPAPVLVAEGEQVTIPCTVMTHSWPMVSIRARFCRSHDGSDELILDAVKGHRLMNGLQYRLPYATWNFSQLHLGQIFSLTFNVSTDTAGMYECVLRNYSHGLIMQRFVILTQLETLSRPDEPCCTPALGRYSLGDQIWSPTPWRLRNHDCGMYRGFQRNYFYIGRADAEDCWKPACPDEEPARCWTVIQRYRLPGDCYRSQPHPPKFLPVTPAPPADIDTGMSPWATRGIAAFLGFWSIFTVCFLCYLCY

## CCC1C(O)C(O)CN1Cc1ccc(I)cc1 (centres unmarked) [Compound 18]
[1]
  cytotoxicity (in words): no cytotoxicity was detected
UL141 D232A mutant
  binding to UL141 mutant: prevented binding

Source: PMC12140054, “Small glycomimetic antagonists of the cytomegalovirus glycoprotein UL141 prevent binding to TRAIL death receptor” (The Journal of Biological Chemistry, 2025)
